pIC50: −log10 of the molar value.
Target: T1, human kinase Mps-1 (Homo sapiens, UniProt P33981)
T1 construct: N-terminally GST-tagged human full length recombinant Mps-1 kinase; GST (N); purchased Invitrogen, Karslruhe, Germany PV4071
T1 sequence (P33981 1-857): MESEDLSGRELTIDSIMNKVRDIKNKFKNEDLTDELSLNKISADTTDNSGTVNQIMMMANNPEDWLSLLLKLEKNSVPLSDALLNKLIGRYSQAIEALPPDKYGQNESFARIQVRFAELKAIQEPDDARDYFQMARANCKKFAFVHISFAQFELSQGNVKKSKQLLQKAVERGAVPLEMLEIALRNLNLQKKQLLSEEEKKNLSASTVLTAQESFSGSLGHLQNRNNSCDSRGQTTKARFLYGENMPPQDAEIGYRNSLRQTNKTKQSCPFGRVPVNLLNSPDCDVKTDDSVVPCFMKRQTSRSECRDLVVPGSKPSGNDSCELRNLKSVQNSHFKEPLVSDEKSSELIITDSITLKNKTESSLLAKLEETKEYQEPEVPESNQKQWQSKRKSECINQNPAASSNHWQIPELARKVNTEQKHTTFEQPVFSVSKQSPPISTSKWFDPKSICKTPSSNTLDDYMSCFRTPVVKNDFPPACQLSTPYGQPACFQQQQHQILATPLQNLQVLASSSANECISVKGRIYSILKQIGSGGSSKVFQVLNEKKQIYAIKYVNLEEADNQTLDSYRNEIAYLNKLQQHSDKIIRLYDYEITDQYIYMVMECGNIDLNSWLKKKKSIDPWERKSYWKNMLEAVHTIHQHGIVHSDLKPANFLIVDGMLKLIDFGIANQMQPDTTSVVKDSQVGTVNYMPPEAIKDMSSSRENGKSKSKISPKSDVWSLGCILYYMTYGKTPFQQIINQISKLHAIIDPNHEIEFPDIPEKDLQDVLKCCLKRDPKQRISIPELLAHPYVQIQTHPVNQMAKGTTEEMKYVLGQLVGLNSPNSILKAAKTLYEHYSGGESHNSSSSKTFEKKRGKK
Test: Mps-1 kinase assay (HTRF)
Format: biochemical

| SMILES | pIC50 |
| --- | --- |
| CCNC(=O)c1ccc(Nc2nc3ccc(-c4cccc(C(=O)NCC(F)(F)F)c4)cn3n2)c(OC)c1 [Example 11.081, N-ethyl-3-methoxy-4-[(6-{3-[(2,2,2-trifluoroethyl)carbamoyl]phenyl}[1,2,4]triazolo [1,5-a]pyridin-2-yl)amino]benzamide] | ≥ 9.00 |
| COc1cc(C(=O)NC(C)(C)C)ccc1Nc1nc2ccc(-c3cccc(C(=O)NCC(C)(C)C)c3)cn2n1 [Example 11.082, N-tert-butyl-4-[(6-{3-[(2,2-dimethylpropyl)carbamoyl]phenyl}[1,2,4]tria-zolo[1,5-a]pyridin-2-yl)amino]-3-methoxybenzamide] | 8.91 |
| CCNC(=O)c1ccc(Nc2nc3ccc(-c4cccc(C(=O)NCC(F)(F)C(F)(F)F)c4)cn3n2)c(OC)c1 [Example 11.083, N-ethyl-3-methoxy-4-[(6-{3-[(2,2,3,3,3-pentafluoropropyl)carbamoyl]phenyl}[1,2,4]triazolo[1,5-a]pyridin-2-yl)amino]benzamide] | ≥ 9.00 |
| COc1cc(C(=O)NCC(F)(F)F)ccc1Nc1nc2ccc(-c3cccc(C(=O)NCC(C)(C)C)c3)cn2n1 [Example 11.084, 4-[(6-{3-[(2,2-dimethylpropyl)carbamoyl]phenyl}[1,2,4]tria-zolo[1,5-a]pyridin-2-yl)amino]-3-methoxy-N-(2,2,2-trifluoroethyl)benzamide] | 8.97 |
| CCOc1cc(C(=O)NCCS(C)(=O)=O)ccc1Nc1nc2ccc(-c3cccc(C(=O)NCC(C)(C)C)c3)cn2n1 [Example 11.085, 4-[(6-{3-[(2,2-dimethylpropyl)carbamoyl]phenyl}[1,2,4]tria-zolo[1,5-a]pyridin-2-yl)amino]-3-ethoxy-N-[2-(methylsulfonyl)ethyl]benzamide] | ≥ 9.00 |
| CCOc1cc(C(=O)NCCS(C)(=O)=O)ccc1Nc1nc2ccc(-c3cccc(C(=O)NCC(F)(F)F)c3)cn2n1 [Example 11.086, 3-ethoxy-N-[2-(methylsulfonyl)ethyl]-4-[(6-{3-[(2,2,2-trifluoroethyl)carbamoyl]phenyl}[1,2,4]triazolo [1,5-a]pyridin-2-yl)amino]benzamide] | ≥ 9.00 |
| CCNC(=O)c1ccc(Nc2nc3ccc(-c4cccc(C(=O)NCC(C)(C)C)c4)cn3n2)c(OCC)c1 [Example 11.087, 4-[(6-{3-[(2,2-dimethylpropyl)carbamoyl]phenyl}[1,2,4]tria-zolo[1,5-a]pyridin-2-yl)amino]-3-ethoxy-N-ethylbenzamide] | ≥ 9.00 |
| CCNC(=O)c1ccc(Nc2nc3ccc(-c4cccc(C(=O)NCC(F)(F)F)c4)cn3n2)c(OCC)c1 [Example 11.088, 3-ethoxy-N-ethyl-4-[(6-{3-[(2,2,2-trifluoroethyl)carbamoyl]phenyl}[1,2,4]triazolo [1,5-a]pyridin-2-yl)amino]benzamide] | ≥ 9.00 |
| CCOc1cc(C(=O)NC(C)(C)C)ccc1Nc1nc2ccc(-c3cccc(C(=O)NCC(C)(C)C)c3)cn2n1 [Example 11.089, N-tert-butyl-4-[(6-{3-[(2,2-dimethylpropyl)carbamoyl]phenyl}[1,2,4]tria-zolo[1,5-a]pyridin-2-yl)amino]-3-ethoxybenzamide] | 9.00 |
| CCOc1cc(C(=O)NC(C)(C)C)ccc1Nc1nc2ccc(-c3cccc(C(=O)NCC(F)(F)F)c3)cn2n1 [Example 11.090, N-tert-butyl-3-ethoxy-4-[(6-{3-[(2,2,2-trifluoroethyl)carbamoyl]phenyl}[1,2,4]triazolo [1,5-a]pyridin-2-yl)amino]benzamide] | 8.79 |

Further lines, results first:

| pIC50 | SMILES |
| --- | --- |
| ≥ 9.00 | CC(C)(C)CNC(=O)c1cccc(-c2ccc3nc(Nc4ccc(C(=O)NCCO)cc4OCC(F)(F)F)nn3c2)c1 [Example 11.091, 4-[(6-{3-[(2,2-dimethylpropyl)carbamoyl]phenyl}[1,2,4]tria-zolo[1,5-a]pyridin-2-yl)amino]-N-(2-hydroxyethyl)-3-(2,2,2-trifluoroethoxy)benzamide] |
| ≥ 9.00 | CC(C)(C)CNC(=O)c1cccc(-c2ccc3nc(Nc4ccc(C(=O)NC(C)(C)CO)cc4OCC(F)(F)F)nn3c2)c1 [Example 11.092, 4-[(6-{3-[(2,2-dimethylpropyl)carbamoyl]phenyl}[1,2,4]tria-zolo[1,5-a]pyridin-2-yl)amino]-N-(1-hydroxy-2-methylpropan-2-yl)-3-(2,2,2-trifluoroethoxy)benzamide] |
| ≥ 9.00 | O=C(NCCO)c1ccc(Nc2nc3ccc(-c4cccc(C(=O)NCC(F)(F)F)c4)cn3n2)c(OCC(F)(F)F)c1 [Example 11.093, N-(2-hydroxyethyl)-3-(2,2,2-trifluoroethoxy)-4-[(6-{3-[(2,2,2-trifluoroethyl)carbamoyl]phenyl}[1,2,4]triazolo [1,5-a]pyridin-2-yl)amino]benzamide] |
| ≥ 9.00 | CC(C)(CO)NC(=O)c1ccc(Nc2nc3ccc(-c4cccc(C(=O)NCC(F)(F)F)c4)cn3n2)c(OCC(F)(F)F)c1 [Example 11.094, N-(1-hydroxy-2-methylpropan-2-yl)-3-(2,2,2-trifluoroethoxy)-4-[(6-{3-[(2,2,2-trifluoroethyl)carbamoyl]phenyl}[1,2,4]triazolo [1,5-a]pyridin-2-yl)amino]benzamide] |
| ≥ 9.00 | CC(C)(C)CNC(=O)c1cccc(-c2ccc3nc(Nc4ccc(C(=O)NCC(C)(C)O)cc4OCC(F)(F)F)nn3c2)c1 [Example 11.095, 4-[(6-{3-[(2,2-dimethylpropyl)carbamoyl]phenyl}[1,2,4]tria-zolo[1,5-a]pyridin-2-yl)amino]-N-(2-hydroxy-2-methylpropyl)-3-(2,2,2-trifluoroethoxy)benzamide] |
| ≥ 9.00 | CC(C)(O)CNC(=O)c1ccc(Nc2nc3ccc(-c4cccc(C(=O)NCC(F)(F)F)c4)cn3n2)c(OCC(F)(F)F)c1 [Example 11.096, N-(2-hydroxy-2-methylpropyl)-3-(2,2,2-trifluoroethoxy)-4-[(6-{3-[(2,2,2-trifluoroethyl)carbamoyl]phenyl}[1,2,4]triazolo [1,5-a]pyridin-2-yl)amino]benzamide] |
| 7.01 | CNS(=O)(=O)c1cccc(-c2ccc3nc(Nc4cccc(F)c4C#N)nn3c2)c1 [Example 11.098, 3-{2-[(2-cyano-3-fluorophenyl)amino][1,2,4]triazolo[1,5-a]pyridin-6-yl}-N-methylbenzenesulfonamide] |
| 7.72 | CC(C)(C)CC(=O)Nc1ccc(-c2ccc3nc(Nc4ccccc4C#N)nn3c2)cc1 [Example 11.099, N-(4-{2-[(2-cyanophenyl)amino][1,2,4]triazolo[1,5-a]pyridin-6-yl}phenyl)-3,3-dimethylbutanamide] |
| 8.09 | CC(C)(C)CCC(=O)Nc1ccc(-c2ccc3nc(Nc4ccccc4C#N)nn3c2)cc1 [Example 11.100, N-(4-{2-[(2-cyanophenyl)amino][1,2,4]triazolo[1,5-a]pyridin-6-yl}phenyl)-4,4-dimethylpentanamide] |
| 8.60 | COc1cc(C(=O)NC(C)(C)C)ccc1Nc1nc2ccc(-c3ccc(NC(=O)CC(F)(F)F)cc3)cn2n1 [Example 11.101, N-tert-butyl-3-methoxy-4-[(6-{4-[(3,3,3-trifluoropropanoyl)amino]phenyl}[1,2,4]triazolo [1,5-a]pyridin-2-yl)amino]benzamide] |

— patent US20130121994A1, “TRIAZOLOPYRIDINE DERIVATIVES” (BAYER INTELLECTUAL PROPERTY GMBH, priority 2009, published 2013)
